Assay results reported in the NIST ThermoML archive (doi:10.1021/je700261b).

Experiment: xn = mol fraction of the nth substance listed
Settings: Liquid

CCCCO [butan-1-ol] + O=C=O
Settings | mass density [kg/m3]
333.08 K, 16957 kPa, x2 = 0.1842 | 803.2
333.08 K, 18103 kPa, x2 = 0.1842 | 804.27
333.08 K, 19053 kPa, x2 = 0.1842 | 805.14
333.08 K, 20044 kPa, x2 = 0.1842 | 806.03
333.08 K, 21090 kPa, x2 = 0.1842 | 807.01
333.08 K, 21974 kPa, x2 = 0.1842 | 807.82
333.08 K, 22960 kPa, x2 = 0.1842 | 808.7
333.08 K, 24014 kPa, x2 = 0.1842 | 809.64
333.08 K, 25045 kPa, x2 = 0.1842 | 810.58
342.85 K, 1014 kPa, x2 = 0.0251 | 772.92
342.85 K, 2013 kPa, x2 = 0.0251 | 773.93
342.85 K, 2982 kPa, x2 = 0.0251 | 774.9
342.85 K, 4039 kPa, x2 = 0.0251 | 775.94
342.85 K, 5057 kPa, x2 = 0.0251 | 776.91
342.85 K, 5993 kPa, x2 = 0.0251 | 777.79
342.85 K, 7067 kPa, x2 = 0.0251 | 778.78
342.85 K, 8025 kPa, x2 = 0.0251 | 779.69
342.85 K, 9013 kPa, x2 = 0.0251 | 780.6
342.85 K, 10012 kPa, x2 = 0.0251 | 781.51
342.85 K, 11010 kPa, x2 = 0.0251 | 782.43
342.85 K, 11969 kPa, x2 = 0.0251 | 783.27
342.85 K, 13080 kPa, x2 = 0.0251 | 784.23
342.85 K, 13925 kPa, x2 = 0.0251 | 784.95
342.85 K, 15055 kPa, x2 = 0.0251 | 785.93
342.85 K, 16002 kPa, x2 = 0.0251 | 786.72
342.85 K, 17016 kPa, x2 = 0.0251 | 787.57
342.85 K, 18007 kPa, x2 = 0.0251 | 788.39
342.85 K, 19019 kPa, x2 = 0.0251 | 789.22
342.85 K, 20027 kPa, x2 = 0.0251 | 790.06
342.85 K, 20996 kPa, x2 = 0.0251 | 790.82
342.85 K, 22019 kPa, x2 = 0.0251 | 791.65
342.85 K, 23034 kPa, x2 = 0.0251 | 792.46
342.85 K, 24052 kPa, x2 = 0.0251 | 793.28
342.85 K, 25090 kPa, x2 = 0.0251 | 794.07
342.87 K, 15510 kPa, x2 = 0.9698 | 598.32
342.87 K, 16022 kPa, x2 = 0.9698 | 613.97
342.87 K, 17033 kPa, x2 = 0.9698 | 640.58
342.87 K, 17988 kPa, x2 = 0.9698 | 661.78
342.87 K, 19001 kPa, x2 = 0.9698 | 681.25
342.87 K, 20036 kPa, x2 = 0.9698 | 698.56
342.87 K, 21044 kPa, x2 = 0.9698 | 713.53
342.87 K, 22014 kPa, x2 = 0.9698 | 726.53
342.87 K, 23003 kPa, x2 = 0.9698 | 738.6
342.87 K, 24019 kPa, x2 = 0.9698 | 749.89
342.87 K, 24944 kPa, x2 = 0.9698 | 759.52
342.88 K, 1975 kPa, x2 = 0.0857 | 776.2
342.88 K, 2955 kPa, x2 = 0.0857 | 777.28
342.88 K, 4033 kPa, x2 = 0.0857 | 778.42
342.88 K, 5015 kPa, x2 = 0.0857 | 779.45
342.88 K, 5957 kPa, x2 = 0.0857 | 780.4
342.88 K, 7027 kPa, x2 = 0.0857 | 781.49
342.88 K, 7999 kPa, x2 = 0.0857 | 782.5
342.88 K, 9007 kPa, x2 = 0.0857 | 783.51
342.88 K, 10003 kPa, x2 = 0.0857 | 784.47
342.88 K, 11007 kPa, x2 = 0.0857 | 785.43
342.88 K, 11951 kPa, x2 = 0.0857 | 786.34
342.88 K, 13010 kPa, x2 = 0.0857 | 787.34
342.88 K, 14012 kPa, x2 = 0.0857 | 788.24
342.88 K, 15065 kPa, x2 = 0.0857 | 789.2
342.88 K, 15994 kPa, x2 = 0.0857 | 790.07
342.88 K, 17007 kPa, x2 = 0.0857 | 790.98
342.88 K, 17999 kPa, x2 = 0.0857 | 791.83
342.88 K, 18990 kPa, x2 = 0.0857 | 792.72
342.88 K, 20029 kPa, x2 = 0.0857 | 793.58
342.88 K, 20993 kPa, x2 = 0.0857 | 794.43
342.88 K, 22004 kPa, x2 = 0.0857 | 795.26
342.88 K, 23039 kPa, x2 = 0.0857 | 796.17
342.88 K, 24019 kPa, x2 = 0.0857 | 796.97
342.88 K, 25064 kPa, x2 = 0.0857 | 797.88
342.92 K, 12062 kPa, x2 = 0.4972 | 795.68
342.92 K, 13090 kPa, x2 = 0.4972 | 797.59
342.92 K, 14017 kPa, x2 = 0.4972 | 799.27
342.92 K, 15047 kPa, x2 = 0.4972 | 801.1
342.92 K, 16026 kPa, x2 = 0.4972 | 802.79
342.92 K, 17041 kPa, x2 = 0.4972 | 804.51
342.92 K, 18053 kPa, x2 = 0.4972 | 806.18
342.92 K, 19028 kPa, x2 = 0.4972 | 807.77
342.92 K, 20046 kPa, x2 = 0.4972 | 809.4
342.92 K, 21062 kPa, x2 = 0.4972 | 810.98
342.92 K, 22043 kPa, x2 = 0.4972 | 812.48
342.92 K, 22996 kPa, x2 = 0.4972 | 813.92
342.92 K, 24003 kPa, x2 = 0.4972 | 815.43
342.92 K, 25073 kPa, x2 = 0.4972 | 816.99
342.94 K, 13074 kPa, x2 = 0.5965 | 795.03
342.94 K, 14051 kPa, x2 = 0.5965 | 797.49
342.94 K, 15068 kPa, x2 = 0.5965 | 799.99
342.94 K, 15189 kPa, x2 = 0.8663 | 716.88
342.94 K, 16052 kPa, x2 = 0.8663 | 728.37
342.94 K, 16064 kPa, x2 = 0.5965 | 802.35
342.94 K, 17059 kPa, x2 = 0.8663 | 740.13
342.94 K, 17076 kPa, x2 = 0.5965 | 804.68
342.94 K, 18027 kPa, x2 = 0.8663 | 749.98
342.94 K, 18056 kPa, x2 = 0.5965 | 806.85
342.94 K, 19037 kPa, x2 = 0.5965 | 808.99
342.94 K, 19050 kPa, x2 = 0.8663 | 759.3
342.94 K, 20036 kPa, x2 = 0.8663 | 767.54
342.94 K, 20067 kPa, x2 = 0.5965 | 811.18
342.94 K, 21031 kPa, x2 = 0.5965 | 813.15
342.94 K, 21038 kPa, x2 = 0.8663 | 775.36
342.94 K, 22050 kPa, x2 = 0.5965 | 815.2
342.94 K, 22085 kPa, x2 = 0.8663 | 782.79
342.94 K, 23030 kPa, x2 = 0.5965 | 817.14
342.94 K, 23032 kPa, x2 = 0.8663 | 789.07
342.94 K, 24031 kPa, x2 = 0.5965 | 819.08
342.94 K, 24045 kPa, x2 = 0.8663 | 795.41
342.94 K, 25028 kPa, x2 = 0.5965 | 820.94
342.94 K, 25042 kPa, x2 = 0.8663 | 801.31
343 K, 6024 kPa, x2 = 0.1842 | 782.23
343 K, 7050 kPa, x2 = 0.1842 | 783.43
343 K, 8037 kPa, x2 = 0.1842 | 784.59
343 K, 9052 kPa, x2 = 0.1842 | 785.73
343 K, 10057 kPa, x2 = 0.1842 | 786.87
343 K, 11053 kPa, x2 = 0.1842 | 787.96
343 K, 12027 kPa, x2 = 0.1842 | 789.03
343 K, 13076 kPa, x2 = 0.1842 | 790.12
343 K, 14026 kPa, x2 = 0.1842 | 791.16
343 K, 15081 kPa, x2 = 0.1842 | 792.24
343 K, 16028 kPa, x2 = 0.1842 | 793.21
343 K, 17031 kPa, x2 = 0.1842 | 794.24
343 K, 18020 kPa, x2 = 0.1842 | 795.22
343 K, 19009 kPa, x2 = 0.1842 | 796.2
343 K, 20030 kPa, x2 = 0.1842 | 797.2
343 K, 21066 kPa, x2 = 0.1842 | 798.2
343 K, 21978 kPa, x2 = 0.1842 | 799.07
343 K, 23062 kPa, x2 = 0.1842 | 800.09
343 K, 24031 kPa, x2 = 0.1842 | 801.02
343 K, 25044 kPa, x2 = 0.1842 | 801.97
352.77 K, 1022 kPa, x2 = 0.0251 | 763.98
352.77 K, 2029 kPa, x2 = 0.0251 | 765.11
352.77 K, 3006 kPa, x2 = 0.0251 | 766.15
352.77 K, 4015 kPa, x2 = 0.0251 | 767.17
352.77 K, 5041 kPa, x2 = 0.0251 | 768.25
352.77 K, 5988 kPa, x2 = 0.0251 | 769.24
352.77 K, 7026 kPa, x2 = 0.0251 | 770.25
352.77 K, 8000 kPa, x2 = 0.0251 | 771.2
352.77 K, 9059 kPa, x2 = 0.0251 | 772.24
352.77 K, 10017 kPa, x2 = 0.0251 | 773.14
352.77 K, 11016 kPa, x2 = 0.0251 | 774.17
352.77 K, 12004 kPa, x2 = 0.0251 | 775.04
352.77 K, 13003 kPa, x2 = 0.0251 | 775.95
352.77 K, 14039 kPa, x2 = 0.0251 | 776.91
352.77 K, 14988 kPa, x2 = 0.0251 | 777.75
352.77 K, 16084 kPa, x2 = 0.0251 | 778.74
352.77 K, 17004 kPa, x2 = 0.0251 | 779.54
352.77 K, 18003 kPa, x2 = 0.0251 | 780.41
352.77 K, 19004 kPa, x2 = 0.0251 | 781.28
352.77 K, 20007 kPa, x2 = 0.0251 | 782.15
352.77 K, 21029 kPa, x2 = 0.0251 | 783.01
352.77 K, 22044 kPa, x2 = 0.0251 | 783.86
352.77 K, 22995 kPa, x2 = 0.0251 | 784.65
352.77 K, 24056 kPa, x2 = 0.0251 | 785.52
352.77 K, 25098 kPa, x2 = 0.0251 | 786.41
352.79 K, 18068 kPa, x2 = 0.9698 | 596.97
352.79 K, 18999 kPa, x2 = 0.9698 | 619.03
352.79 K, 20007 kPa, x2 = 0.9698 | 639.88
352.79 K, 21053 kPa, x2 = 0.9698 | 659.01
352.79 K, 22011 kPa, x2 = 0.9698 | 674.59
352.79 K, 23058 kPa, x2 = 0.9698 | 690
352.79 K, 24106 kPa, x2 = 0.9698 | 703.93
352.79 K, 25050 kPa, x2 = 0.9698 | 715.49
352.82 K, 6041 kPa, x2 = 0.1842 | 772.14
352.82 K, 7041 kPa, x2 = 0.1842 | 773.4
352.82 K, 8024 kPa, x2 = 0.1842 | 774.6
352.82 K, 9042 kPa, x2 = 0.1842 | 775.87
352.82 K, 10044 kPa, x2 = 0.1842 | 777.07
352.82 K, 11026 kPa, x2 = 0.1842 | 778.23
352.82 K, 12073 kPa, x2 = 0.1842 | 779.44
